# Measurements from patent US10533010B2, “Substituted indole Mcl-1 inhibitors” (Vanderbilt University, priority 2014, dated 2020).
# Molecular target: recombinant Mcl-1 (residues 172-327) (Homo sapiens (Human), UniProt Q07820)
# Experiment: Fluorescence polarization anisotropy competition assay (FITC-Bak or FITC-Bim BH3 peptide) with Mcl-1
# Assay type: binding
# Conditions: Table 2; Ki bins given in nM; FITC-Bak or FITC-Bim peptide competition; Ki converted from IC50; read-out: Ki for Inhibition of Mcl-1
# recombinant Mcl-1 (residues 172-327), sequence (Q07820 172-327): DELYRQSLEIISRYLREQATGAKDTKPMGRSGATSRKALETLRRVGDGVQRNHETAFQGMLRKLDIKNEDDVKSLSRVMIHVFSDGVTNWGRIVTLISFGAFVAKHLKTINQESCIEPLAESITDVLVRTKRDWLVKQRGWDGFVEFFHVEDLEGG
row,Ki,SMILES
1,< 50 nM,"Cc1cc(OCCCc2c(C(=O)NCc3cccc(C(=O)O)c3)[nH]c3c(-c4c(C)n[nH]c4C)cccc23)cc(C)c1Cl [I-25a, 3-((3-(3-(4-chloro-3,5-dimethylphenoxy)propyl)-7-(3,5-dimethyl-1H-pyrazol-4-yl)-1H-indole-2-carboxamido)methyl)benzoic acid]"
2,< 50 nM,"Cc1cc(OCCCc2c3n(c4c(-c5c(C)nn(C)c5C)c(Cl)ccc24)CCN(Cc2cccc(C(=O)O)c2)C3=O)cc(C)c1Cl [I-141, 3-((7-chloro-10-(3-(4-chloro-3,5-dimethylphenoxy)propyl)-1-oxo-6-(1,3,5-trimethyl-1H-pyrazol-4-yl)-3,4-dihydropyrazino[1,2-a]indol-2(1H)-yl)methyl)benzoic acid]"
3,< 50 nM,"Cc1cc(OCCCc2c3n(c4c(-c5c(C)nn(C)c5C)c(Cl)ccc24)CCN(c2cc(C(=O)O)cc4c2ccn4C)C3=O)cc(C)c1Cl [I-163, 4-(7-cholro-10-(3-(4-chloro-3,5-dimethylphenoxy)propyl)-1-oxo-6-(1,3,5-trimethyl-1H-pyrazol-4-yl)-3,4-dihydropyrazino[1,2-a]indol-2(1H)-yl)-1-methyl-1H-indole-6-carboxylic acid]"
4,< 50 nM,"Cc1cc(OCCCc2c3n(c4c(-c5c(C)nn(C)c5C)c(Cl)ccc24)CCCN(c2ncc(C(=O)O)s2)C3=O)cc(C)c1Cl [I-358, 2-(8-chloro-11-(3-(4-chloro-3,5-dimethylphenoxy)propyl)-1-oxo-7-(1,3,5-trimethyl-1H-pyrazol-4-yl)-4,5-dihydro-1H-[1,4]diazepino[1,2-a]indol-2(3H)-yl)thiazole-5-carboxylic acid]"
5,< 50 nM,"Cc1cc(OCCCc2c3n(c4c(-c5c(C)nn(C)c5C)c(Cl)ccc24)C(C)[C@@H](C)N(Cc2ccc(C(=O)O)o2)C3=O)cc(C)c1Cl (stereo partly drawn) [I-147, 5-(((3R)-7-chloro-10-(3-(4-chloro-3,5-dimethylphenoxy)propyl)-3,4-dimethyl-1-oxo-6-(1,3,5-trimethyl-1H-pyrazol-4-yl)-3,4-dihydropyrazino[1,2-a]indol-2(1H)-yl)methyl)furan-2-carboxylic acid]"
6,< 50 nM,"Cc1cc(OCCCc2c3n(c4c(-c5c(C)nn(C)c5C)c(Cl)ccc24)CCCN(c2cc(Cn4ccnc4)cc(C(=O)O)c2)C3=O)cc(C)c1Cl [I-229, 3-((1H-imidazol-1-yl)methyl)-5-(8-chloro-11-(3-(4-chloro-3,5-dimethylphenoxy)propyl)-1-oxo-7-(1,3,5-trimethyl-1H-pyrazol-4-yl)-4,5-dihydro-1H-[1,4]diazepino[1,2-a]indol-2(3H)-yl)benzoic acid]"
7,< 50 nM,"Cc1cc(OCCCc2c3n(c4c(-c5c(C)nn(C)c5C)c(Cl)ccc24)C[C@@H](C)N(Cc2ccc(C(=O)O)cc2)C3=O)cc(C)c1Cl [I-120, (R)-4-((7-chloro-10-(3-(4-chloro-3,5-dimethylphenoxy)propyl)-3-methyl-1-oxo-6-(1,3,5-trimethyl-1H-pyrazol-4-yl)-3,4-dihydropyrazino[1,2-a]indol-2(1H)-yl)methyl)benzoic acid]"
8,< 50 nM,"Cc1cc(OCCCc2c3n(c4c(-c5c(C)nn(C)c5C)c(Cl)ccc24)CCCN(Cc2ccc(C(=O)O)cn2)C3=O)cc(C)c1Cl [I-102, 6-((8-chloro-11-(3-(4-chloro-3,5-dimethylphenoxy)propyl)-1-oxo-7-(1,3,5-trimethyl-1H-pyrazol-4-yl)-4,5-dihydro-1H-[1,4]diazepino[1,2-a]indol-2(3H)-yl)methyl)nicotinic acid]"
9,< 50 nM,"Cc1cc(OCCCc2c3n(c4c(-c5c(C)nn(C)c5C)c(Cl)ccc24)[C@@H](C)CN(Cc2ccc(C(=O)O)cn2)C3=O)cc(C)c1Cl [I-149, (S)-6-((7-chloro-10-(3-(4-chloro-3,5-dimethylphenoxy)propyl)-4-methyl-1-oxo-6-(1,3,5-trimethyl-1H-pyrazol-4-yl)-3,4-dihydropyrazino[1,2-a]indol-2(1H)-yl)methyl)nicotinic acid]"
10,< 50 nM,"Cc1cc(OCCCc2c(C(=O)NCC(=O)O)[nH]c3c(-c4c(C)nn(C)c4C)cccc23)cc(C)c1Cl [I-286, (3-(3-(4-chloro-3,5-dimethylphenoxy)propyl)-7-(1,3,5-trimethyl-1H-pyrazol-4-yl)-1H-indole-2-carbonyl)glycine]"

row,SMILES,Ki
1,"Cc1cc(OCCCc2c3n(c4c(-c5c(C)nn(C)c5C)c(Cl)ccc24)CCCN(Cc2cc(COc4ccccc4C(F)(F)F)cc(C(=O)O)c2)C3=O)cc(C)c1Cl [I-312, 3-((8-chloro-11-(3-(4-chloro-3,5-dimethylphenoxy)propyl)-1-oxo-7-(1,3,5-trimethyl-1H-pyrazol-4-yl)-4,5-dihydro-1H-[1,4]diazepino[1,2-a]indol-2(3H)-yl)methyl)-5-((2-(trifluoromethyl)phenoxy)methyl)benzoic acid]",51 to 100 nM
2,"Cc1cc(OCCCc2c(C(=O)NCCC(=O)NS(=O)(=O)c3ccccc3)[nH]c3ccccc23)cc(C)c1Cl [I-14, 3-(3-(4-chloro-3,5-dimethylphenoxy)propyl)-N-(3-oxo-3-(phenylsulfonamido)propyl)-1H-indole-2-carboxamide]",51 to 100 nM
3,"Cc1cc(OCCCc2c(C(=O)Nc3cccc(C(=O)NS(=O)(=O)c4ccc([N+](=O)[O-])cc4)c3)[nH]c3c(-c4cccnc4C)cccc23)cc(C)c1Cl [I-68, 3-(3-(4-chloro-3,5-dimethylphenoxy)propyl)-7-(2-methylpyridin-3-yl)-N-(3-(((4-nitrophenyl)sulfonyl)carbamoyl)phenyl)-1H-indole-2-carboxamide]",51 to 100 nM
4,"Cc1cc(OCCCc2c3n(c4c(-c5c(C)nn(C)c5C)c(Cl)ccc24)[C@H](C)CN(Cc2ccc(C(=O)O)o2)C3=O)cc(C)c1Cl [I-152, (R)-5-((7-chloro-10-(3-(4-chloro-3,5-dimethylphenoxy)propyl)-4-methyl-1-oxo-6-(1,3,5-trimethyl-1H-pyrazol-4-yl)-3,4-dihydropyrazino[1,2-a]indol-2(1H)-yl)methyl)furan-2-carboxylic acid]",< 50 nM
5,"Cc1cc(OCCCc2c(C(=O)N3CCc4c(C(=O)O)cccc43)[nH]c3c(-c4c(C)nn(C)c4C)cccc23)cc(C)c1Cl [I-202, 1-(3-(3-(4-chloro-3,5-dimethylphenoxy)propyl)-7-(1,3,5-trimethyl-1H-pyrazol-4-yl)-1H-indole-2-carbonyl)indoline-4-carboxylic acid]",51 to 100 nM
6,"Cc1cc(OCCCc2c(C(=O)NCc3ccc(C(=O)O)o3)n(C)c3c(-c4c(C)nn(C)c4C)cccc23)cc(C)c1Cl [I-66, 5-((3-(3-(4-chloro-3,5-dimethylphenoxy)propyl)-1-methyl-7-(1,3,5-trimethyl-1H-pyrazol-4-yl)-1H-indole-2-carboxamido)methyl)furan-2-carboxylic acid]",< 50 nM

# Same assay, conditions: Table 2; Ki bins given in μM; FITC-Bak or FITC-Bim peptide competition; Ki converted from IC50; read-out: Ki for Inhibition of Mcl-1
row,SMILES,Ki
1,"Cc1cc(OCCCc2c(C(=O)N3CCC(N4CCOCC4)CC3)[nH]c3ccccc23)cc(C)c1Cl [I-47, (3-(3-(4-chloro-3,5-dimethylphenoxy)propyl)-1H-indol-2-yl)(4-morpholinopiperidin-1-yl)methanone]",10000 to 50000 nM
2,"Cc1cc(OCCCc2c(C(=O)N3CCN(c4ccc(C(=O)O)cc4)CC3)[nH]c3cc(Cl)ccc23)cc(C)c1Cl [I-51, 4-(4-(6-chloro-3-(3-(4-chloro-3,5-dimethylphenoxy)propyl)-1H-indole-2-carbonyl)piperazin-1-yl)benzoic acid]",1000 to 9990 nM
3,"Cc1cc(OCCCc2c(C(=O)NCc3ccc(C(=O)O)o3)n(C)c3c(-c4c(C)nn(C)c4C)cccc23)cc(C)c1Cl [I-66, 5-((3-(3-(4-chloro-3,5-dimethylphenoxy)propyl)-1-methyl-7-(1,3,5-trimethyl-1H-pyrazol-4-yl)-1H-indole-2-carboxamido)methyl)furan-2-carboxylic acid]",10000 to 50000 nM
